According to the OPERA property sets (Mansouri et al. 2018):

Conditions: not given

| SMILES | melting point | boiling point | log10 Koa | log10 vapour pressure (mmHg) | log10 Koc (L/kg) | log10 biodegradation half-life (days) | log10 Henry constant (atm·m³/mol) | ready biodegradability |
| --- | --- | --- | --- | --- | --- | --- | --- | --- |
| O=C(O)COc1ccc2ccccc2c1 | 156 °C |  |  |  |  |  |  |  |
| Brc1ccc(Br)s1 | -6 °C | 210 °C |  |  |  |  |  |  |
| CCCCC#N | -96.2 °C | 141 °C | 3.6 | 0.863 |  |  |  |  |
| c1ccc(Cc2cccnc2)cc1 | 34 °C | 287 °C |  |  |  |  |  |  |
| CC(C)[C@@H](N)C(=O)O | 315 °C |  |  |  |  |  |  |  |
| CC1(C)CCCCC1=O | -20.5 °C | 172 °C |  |  |  |  |  |  |
| CC(=O)Nc1ccccc1C | 110 °C | 296 °C |  |  |  |  |  |  |
| CN1[C@@H](CC(=O)c2ccccc2)CCC[C@H]1C[C@H](O)c1ccccc1 | 130 °C |  |  |  |  |  |  |  |
| FCCCCl |  | 80 °C |  |  |  |  |  |  |
| Cc1ccsc1/C=C/C1=NCCCN1C | 240 °C |  |  |  |  |  |  |  |
| CC=CCCCCC | -80 °C | 124 °C |  | 1.21 |  |  |  |  |
| CCc1cnc(C2=NC(C)(C(C)C)C(=O)N2)c(C(=O)O)c1 (stereo not given) | 171 °C |  |  |  | 0.85 |  |  |  |
| Clc1cc(Cl)c2c(c1Cl)Oc1c(Cl)cc(Cl)c(Cl)c1O2 | 238 °C |  |  | -10.3 |  |  |  |  |
| NCCCC[C@H](N)C(=O)O |  |  |  | -8.28 |  |  |  |  |
| Nc1ccc(I)cc1 | 67.5 °C |  |  |  |  |  |  |  |
| Cc1c([N+](=O)[O-])cc(N)cc1[N+](=O)[O-] | 171 °C |  |  |  |  |  |  |  |
| CCCC(=O)C=Cc1ccc(O)c(O)c1 | 132 °C |  |  |  |  |  |  |  |
| CC=C(C)C(C)(C)C |  | 112 °C |  |  |  |  |  |  |
| CCOc1ccc(NC(=O)C(C)O)cc1 (stereo not given) | 118 °C |  |  |  |  |  |  |  |
| CC[N+](CC)(CC(=O)Nc1c(C)cccc1C)Cc1ccccc1.O=C([O-])c1ccccc1 | 168 °C |  |  |  |  |  |  |  |
| CCOc1ccc(Cc2nc(C)cc3cc(OC)c(OC)cc23)cc1OC | 124 °C |  |  |  |  |  |  |  |

| SMILES | melting point | boiling point | log10 Koa | log10 vapour pressure (mmHg) | log10 Koc (L/kg) | log10 biodegradation half-life (days) | log10 Henry constant (atm·m³/mol) | ready biodegradability |
| --- | --- | --- | --- | --- | --- | --- | --- | --- |
| CC(C)=CCC/C(C)=C/C=C/C(C)=C/C=C/C(C)=C/C=C/C=C(C)/C=C/C=C(C)/C=C/C1C(C)=CCCC1(C)C (stereo not given) | 140 °C |  |  |  |  |  |  |  |
| Nc1cc(Cl)c(O)c(Cl)c1 | 168 °C |  |  |  |  |  |  |  |
| CC(C(=O)[O-])c1ccccc1 (stereo not given) |  | 261 °C |  |  |  |  |  |  |
| CC(C)Cc1ccccc1 |  |  |  |  |  | 1 |  |  |
| C#CC(C)(C)O | 3 °C | 104 °C |  | 1.2 |  |  | -5.41 |  |
| c1ccc(Cc2nc3ccccc3[nH]2)cc1 | 187 °C |  |  |  |  |  |  |  |
| CCCCC(CC)COC(=O)Cl (stereo not given) |  | 207 °C |  | -0.775 |  |  |  |  |
| CNC(=O)CC(C)=O |  |  |  |  |  |  |  | readily biodegradable |
| CCCC(=NOCC)C1=C(O)CC(CC(C)SCC)CC1=O (stereo not given) |  |  |  | -6.8 | 2 |  |  |  |
| CCC(O)CO (stereo not given) |  | 194 °C |  | -1.3 |  |  |  | readily biodegradable |
| CCCCCCCCCCCC | -9.6 °C | 216 °C |  | -0.87 |  | 1 |  | readily biodegradable |
| FC(F)(F)c1cccc(C(c2ccccc2)(c2ccccc2)n2cncn2)c1 | 132 °C |  |  |  |  |  |  |  |
| CC(C)Oc1ccc(Nc2ccccc2)cc1 | 79 °C |  |  |  |  |  |  |  |
| C=C(C)C(=O)O | 16 °C | 163 °C |  | -0.0044 |  |  | -6.41 | readily biodegradable |
| C[Si]1(C)O[Si](C)(C)O[Si](C)(C)O[Si](C)(C)O[Si](C)(C)O1 | -38 °C | 210 °C |  | -0.699 |  |  | 1.52 |  |
| Nc1ccc(Cc2ccc(N)c(Cl)c2)cc1Cl | 110 °C | 379 °C |  |  |  |  |  | not readily biodegradable |
| CC(C)=CCC1C(=O)N(c2ccccc2)N(c2ccccc2)C1=O | 156 °C |  |  |  |  |  |  |  |
| Brc1cccc(Br)c1 | -7 °C | 218 °C |  | -0.571 |  |  |  |  |
| N#CCC(N)=C(C#N)C#N | 172 °C |  |  |  |  |  |  |  |
| C[Si](C)(C)O[Si](C)(C)O[Si](C)(C)O[Si](C)(C)O[Si](C)(C)O[Si](C)(C)O[Si](C)(C)O[Si](C)(C)O[Si](C)(C)O[Si](C)(C)O[Si](C)(C)C |  | 323 °C |  |  |  |  |  |  |
| OCCN(CCO)CCO | 20.5 °C | 335 °C |  | -5.44 |  |  |  | not readily biodegradable |

| SMILES | melting point | boiling point | log10 Koa | log10 vapour pressure (mmHg) | log10 Koc (L/kg) | log10 biodegradation half-life (days) | log10 Henry constant (atm·m³/mol) | ready biodegradability |
| --- | --- | --- | --- | --- | --- | --- | --- | --- |
| COc1ccccc1 | -37.5 °C | 154 °C | 4.01 | 0.549 | 1.54 |  |  | readily biodegradable |
| CC(=O)NC(CC(=O)[O-])C(=O)[O-] (stereo not given) | 138 °C |  |  |  |  |  |  |  |
| CC(O)COCc1c(Cl)ccc(Cl)c1Cl (stereo not given) |  |  |  | -4 |  |  |  |  |
| CCOC(=O)NC(N)=O | 196 °C |  |  |  |  |  |  |  |
| COc1cc2c(c(O)c1OC)CCN(C)[C@H]2C | 152 °C |  |  |  |  |  |  |  |
| SCCCCCCCCS |  | 270 °C |  |  |  |  |  |  |
| CCc1cc2c(s1)N(C)C(=O)CN=C2c1ccccc1Cl | 119 °C |  |  |  |  |  |  |  |
| O=c1[nH]cnc2c1ncn2[C@H]1CC[C@@H](CO)O1 | 162 °C |  |  |  |  |  |  |  |
| CCN(CC)C(C)CN1c2ccccc2Sc2ccccc21 (stereo not given) | 64.5 °C |  |  |  |  |  |  |  |
| C1CS1 |  | 55.5 °C |  | 2.4 |  |  |  |  |
| COC(CCl)OC |  | 128 °C |  |  |  |  |  |  |
| CC(C)=C1CCC(C)CC1 (stereo not given) |  | 173 °C |  |  |  |  |  |  |
| CCNc1nc(NC(C)C(C)C)nc(SC)n1 (stereo not given) | 65 °C |  |  | -5.85 |  |  |  |  |
| C[Si]1(C)N[Si](C)(C)N[Si](C)(C)N[Si](C)(C)N1 | 97.5 °C | 225 °C |  |  |  |  |  |  |
| COc1cccc(Cl)c1 |  | 194 °C |  |  |  |  |  |  |
| CCCCC(O)(Cn1cncn1)c1ccc(Cl)cc1Cl (stereo not given) | 111 °C |  |  | -6.87 |  |  |  |  |
| O=C(O)CCCCCCCC(=O)O | 106 °C |  |  | -7.97 |  |  |  |  |
| N#CC(Cl)Cl |  | 112 °C |  |  |  |  |  |  |
| Clc1cc(Cl)c(-c2ccccc2)cc1Cl | 76.3 °C |  | 8 | -3.01 |  |  | -3.7 |  |
| OCC(CO)(CO)COCC(CO)(CO)CO | 221 °C |  |  |  |  |  |  | not readily biodegradable |
| CC(C)NCC(O)c1ccc(O)c(O)c1 (stereo not given) | 170 °C |  |  |  |  |  |  |  |

| SMILES | melting point | boiling point | log10 Koa | log10 vapour pressure (mmHg) | log10 Koc (L/kg) | log10 biodegradation half-life (days) | log10 Henry constant (atm·m³/mol) | ready biodegradability |
| --- | --- | --- | --- | --- | --- | --- | --- | --- |
| CCCCCCCCCC(N)=O | 108 °C |  |  |  |  |  |  |  |
| Clc1cccc(Cl)n1 | 88 °C | 211 °C |  |  |  |  |  | not readily biodegradable |
| COc1cc(Cl)cc(OC)c1 | 35 °C | 234 °C |  |  |  |  |  |  |
| C[Si]1(C)O[Si](C)(C)O[Si](C)(C)O[Si](C)(C)O[Si](C)(C)O[Si](C)(C)O[Si](C)(C)O1 | -26 °C |  |  | -1.95 |  |  |  |  |
| O=C1CCc2ccccc2C1 | 18 °C | 237 °C |  |  |  |  |  |  |
| CC(C)(C)OC(=O)CCl |  | 150 °C |  |  |  |  |  |  |
| c1cc2c(cc1O[C@H]1OC[C@H]3[C@@H]1CO[C@@H]3c1ccc3c(c1)OCO3)OCO2 | 93.5 °C |  |  |  |  |  |  |  |
| CCCC(O)CCC | -41.2 °C | 156 °C |  | -0.0048 |  |  |  |  |
| CCC(CC)CC(C)C |  | 134 °C |  |  |  |  |  |  |
| CC#CCCCC |  | 112 °C |  |  |  |  |  |  |
| FC(F)(F)C1(F)C(F)(F)C(F)(F)C(F)(F)C(F)(C(F)(F)F)C1(F)F (stereo not given) | -70 °C | 102 °C |  |  |  |  |  |  |
| Cc1c(NC(=O)c2cccnc2)c(=O)n(-c2ccccc2)n1C | 253 °C |  |  |  |  |  |  |  |
| C1CC2CCCC(C1)C2 | 146 °C | 170 °C |  |  |  |  |  |  |
| CC[C@H]1C[N@@]2CC[C@H]1C[C@H]2[C@H](O)c1ccnc2ccc(OCCC(C)C)cc12 | 152 °C |  |  |  |  |  |  |  |
| CC1(N)CCCC1 |  | 121 °C |  |  |  |  |  |  |
| Clc1ccc(-c2cc(Cl)ccc2Cl)c(Cl)c1 |  |  | 8.39 | -5.07 |  |  | -3.68 |  |
| Brc1cncc(Br)c1 | 112 °C | 222 °C |  |  |  |  |  |  |
| FC(F)(F)c1ccccc1 | -29.1 °C | 102 °C |  | 1.59 |  |  |  | not readily biodegradable |
| CC(C)[N+](C)(CCOC(=O)C1c2ccccc2Oc2ccccc21)C(C)C.[Br-] | 160 °C |  |  |  |  |  |  |  |
| CCCSP(=O)(OCC)SCCC | -13 °C |  |  | -3.42 | 1.85 |  |  |  |
| O=C1c2ccccc2C(=O)c2cc(O)ccc21 | 306 °C |  |  | -10.2 |  |  |  |  |

Same assay, conditions: fish

| SMILES | log10 BCF | log10 biotransformation half-life (days) |
| --- | --- | --- |
| CCCCCCCCCCCC | 2.38 | 0.26 |
| C[Si]1(C)O[Si](C)(C)O[Si](C)(C)O[Si](C)(C)O[Si](C)(C)O1 |  | 2.74 |
| Nc1ccc(Cc2ccc(N)c(Cl)c2)cc1Cl | 2.24 | -0.15 |
| Brc1cccc(Br)c1 | 2.82 | 1.16 |
| OCCN(CCO)CCO | 0.59 |  |
| Clc1cc(Cl)c(-c2ccccc2)cc1Cl | 3.78 | 1.84 |
| C[Si]1(C)O[Si](C)(C)O[Si](C)(C)O[Si](C)(C)O[Si](C)(C)O[Si](C)(C)O[Si](C)(C)O1 |  | 1.48 |
| FC(F)(F)c1ccccc1 | 1.65 | -0.48 |
